From PubChem BioAssay (NCI)
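In this assay, cells in 96-well plates receive the compound at five concentrations for 48 hours. Endpoints are linearly interpolated between the surrounding concentrations. Here, GI50 denotes the concentration required for 50% inhibition of growth. Definition used: TGI = concentration required for complete inhibition of growth.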

Key:
Experiment in all cases: NCI-60 cell line screen, 48 h
[1] = tested on: NCI-H226 lung
[2] = tested on: NCI-H23 lung
[3] = tested on: NCI-H460 lung
[4] = tested on: NCI-H522 lung
[5] = tested on: NCI/ADR-RES ovarian
[6] = tested on: OVCAR-3 ovarian
[7] = tested on: OVCAR-4 ovarian
[8] = tested on: OVCAR-5 ovarian
[9] = tested on: OVCAR-8 ovarian
[10] = tested on: PC-3 prostate
[11] = tested on: RPMI-8226 leukemia
[12] = tested on: RXF 393 renal
[13] = tested on: SF-268 CNS
[14] = tested on: SF-295 CNS
[15] = tested on: SF-539 CNS
[16] = tested on: SK-MEL-2 melanoma
[17] = tested on: SK-MEL-28 melanoma
[18] = tested on: SK-MEL-5 melanoma
[19] = tested on: SK-OV-3 ovarian
[20] = tested on: SN12C renal
[21] = tested on: SNB-19 CNS
[22] = tested on: SNB-75 CNS
[23] = tested on: SW-620 colon
[24] = tested on: T-47D breast
[25] = tested on: TK-10 renal
[26] = tested on: UACC-257 melanoma
[27] = tested on: UACC-62 melanoma
[28] = tested on: UO-31 renal

For `C=CC(=O)Nc1cc(N2CCN(CC)CC2)ccc1Nc1cc(N(C)C(=O)Nc2c(Cl)c(OC)cc(OC)c2Cl)ncn1`, the TGI [1] was 35.8 µM, the GI50 [2] was 4.36 µM and the TGI [2] was 20 µM. It also gave a GI50 [3] of 7.67 µM, a TGI [3] of 24.7 µM and a GI50 [4] of 4.77 µM. The TGI [4] was 20.3 µM, the GI50 [5] was 20.5 µM and the TGI [5] was 70.5 µM. The GI50 [6] was 3.49 µM, the TGI [6] was 15.4 µM and the GI50 [7] was 5.35 µM. It also gave a TGI [7] of 22.9 µM, a GI50 [8] of 19.4 µM and a TGI [8] of 51.2 µM. For the same compound, the GI50 [9] was 4.38 µM, the TGI [9] was 18.1 µM and the GI50 [10] was 5.05 µM. The TGI [10] was 20.8 µM, the GI50 [11] was 2.37 µM and the TGI [11] was 7.22 µM. For the same compound, the GI50 [12] was 2.98 µM, the TGI [12] was 9.76 µM and the GI50 [13] was 5.53 µM. For the same compound, the TGI [13] was 27.7 µM, the GI50 [14] was 16.7 µM and the TGI [14] was 31.8 µM. It also gave a GI50 [15] of 3.53 µM, a TGI [15] of 15.2 µM and a GI50 [16] of 13 µM. For the same compound, the TGI [16] was 27.3 µM, the GI50 [17] was 2.03 µM and the TGI [17] was 4.53 µM. It also gave a GI50 [18] of 11.3 µM, a TGI [18] of 23.9 µM and a GI50 [19] of 12.3 µM. For the same compound, the TGI [19] was 27.5 µM, the GI50 [20] was 2.84 µM and the TGI [20] was 9.72 µM. It also gave a GI50 [21] of 5.05 µM, a TGI [21] of 17.5 µM and a GI50 [22] of 2.48 µM. It also gave a TGI [22] of 14.2 µM, a GI50 [23] of 3.29 µM and a TGI [23] of 11.7 µM. The GI50 [24] was 3.3 µM, the TGI [24] was 26.4 µM and the GI50 [25] was 10.6 µM. It also gave a TGI [25] of 26 µM, a GI50 [26] of 13.5 µM and a TGI [26] of 30.1 µM. The GI50 [27] was 12.8 µM, the TGI [27] was 27.3 µM and the GI50 [28] was 8.53 µM. For the same compound, the TGI [28] was 22.2 µM.
